# Data from paper PMC5034901, “Development & automation of a novel [^18F]F prosthetic group, 2-[^18F]-fluoro-3-pyridinecarboxaldehyde, and its application to an amino(oxy)-functionalised Aβ peptide” (Applied Radiation and Isotopes, 2016).
# Assay: Pre-clinical PET biodistribution
# Format: in vivo
# Details: Wistar rats, radiolabel carried on [18F]RI-OR2-TAT
# Experimental: Wistar rats (n =3) were anaesthetised using isoflurane (induction 4% and maintained 1.5%) in 70% N2O and 30% O2 mixture. […] All scans were carried out using a Siemens Inveon® PET-CT scanner. The acquisition protocol parameters consisted of a preliminary CT scan to attain attenuation correction factors followed by a 1 h PET acquisition with time coincidence window of 3.432 ns and levels of energy discrimination set between 350 keV and 650 keV. Images were reconstructed and analysed as described elsewhere ([Boutin et al., 2015]).
compound,measurement,value
"O=Cc1cccnc1[18F] [[^18F]FPCA, 2-[^18F]-Fluoro-3-pyridinecarboxaldehyde]",stability to defluorination (bone uptake of radioactivity),relatively little bone uptake
